Laboratory results published in US9795687B2, “Modularly assembled small molecules for the treatment of myotonic dystrophy type 1” (The Scripps Research Institute, priority 2013, dated 2017).

Tests used:
[1] = tested on: r(CUG)12-MBNL1 complex; test: TR-FRET assay, disruption of the r(CUG)12-MBNL1 complex; type: biochemical; settings: among third generation compounds (2H-K4NPr derivatives)
Procedure: As mentioned above, DM1 is caused by sequestration of MBNL1 by r(CUG)^exp.^28, 32-37 Therefore, in vitro potency was determined by measuring displacement of MBNL1 from a r(CUG)12-MBNL1 complex using a time-resolved FRET (TR-FRET) assay.^15, 47 Each dimeric compound disrupts the r(CUG)12-MBNL1 complex with IC50's between ˜3 and ˜300 μM (FIG. 3). […] This may be due to the presence of imino protons that can favorably interact with the phosphodiester backbone of RNA (FIG. 2).
Initial in vitro activity of modularly assembled compounds was assessed by disruption of the r(CUG)^exp-MBNL1 complex using a previously reported TR-FRET assay.^15, 47 The ratio of fluorescence intensity of 545 and 665 nm in the presence and absence of compound were used to calculate percent inhibition.
The resulting curves were fit to the following equation to determine IC50 values:
[formula] where y is the ratio of fluorescence intensities at 545 nm and 665 nm (F545/F665), x is the concentration of small molecule, B is the F545/F665 ratio reflective of the maximum amount of FRET observed (absence of small molecule); A is the F545/F665 ratio reflective of the minimum amount of FRET observed (absence of RNA, protein, and small molecule; only antibodies are present); and the IC50 is the concentration of small molecule where half of the protein is displaced by small molecule. Improvement of DM1-Associated Splicing Defects in a DM1 Cell Culture Model Using RT-PCR.

[2] = tested on: pronase; test: Proteolytic stability against pronase digestion (HPLC); type: in vitro ADME, Streptomyces griseus K-1; design: key to Pronase Degradation (pH 7.8) / Pronase Degradation (pH 9): +: Pronase stable; ++: Intermediate Pronase stability; +++: Pronase unstable; settings: 18 h, 400 μM compound
Procedure: Proteolytic stability of second and third generation compounds was assessed using pronase as previously described.^3 Pronase is a group of≧10 proteases isolated from Streptomyces griseus K-1. As such, proteolytic degradation was measured at two pH's, 7.8 and 9.0. Briefly, promise (1 unit) was added to the compound of interest (400 μM in 40 μL) in 1X Digestion Buffer (50 mM Tris-HCl, pH 7.8 or 9.0, and 10 mM CaCl2), and the reaction was incubated at 37° C. for 18 h. Reactions were quenched by addition of 4 μL of 25% acetic acid, and the products of the pronase digestion were analyzed by HPLC. A linear gradient of 0-100% methanol in H2O with 0.1% (v/v) TFA and a flow rate of 1 mL/min were employed.

[3] = tested on: C2C12 cell line expressing firefly luciferase mRNA with r(CUG)800 in the 3′ UTR; test: DM1 translational defect, luciferase model system; type: cell-based; settings: as little as 1 μM compound
Excerpt: Next, compounds were studied for improving translational defects associated with DM1 (due to poor nucleocytoplasmic transport of r(CUG)^exp-containing transcripts).^33-40 In particular, a cellular model system was employed in which the C2C12 cell line stably expresses r(CUG)800 embedded in the 3′ UTR of firefly luciferase.^18 Akin to DMPK mRNA in DM1-affected cells, the expanded repeat impairs nucleocytoplasmic transport of luciferase mRNA and thus decreases luciferase expression. Compounds that bind r(CUG)^exp and disrupt the r(CUG)^exp-MBNL1 complex may stimulate cytoplasmic transport of the luciferase mRNA and thus translation of luciferase (FIG. 4C).
C2C12 cell lines expressing 800 or 0 CTG repeats in the 3′ UTR of luciferase were grown as monolayers in 96-well plates in growth medium (1X DMEM, 10% FBS, 1X Glutamax, (Invitrogen) and 1X penicillin/streptomycin (MP Biomedicals LLC)). After 24 h, the compound of interest was added in 50 μL of growth medium. Cells were treated with compound for 24 h. Luciferase activity was determined as previously described.^18

[4] = tested on: r(CUG)12; test: SPR binding kinetics to r(CUG)12
Procedure: (§1) The binding of 2H-K4NMe to various RNAs including r(CUG)12, r(CAG)12, r(AU)12 and r(GC)δ was studied by surface plasmon resonance (SPR) spectrometry. […] In summary, 2H-K4NMe is selective for r(CUG)12 by ˜30-100-fold over the other RNAs studied (Table 2). In general, it has a faster association rate (kon) and a slower dissociation rate (koff) when binding to r(CUG)12 compared to the other RNAs.
(§2) On rates, off rates and Kobs values were measured using a ForteBio OctetRed spectrophotometer and Streptavidin SA dip-and-read biosensors (ForteBio). Sensors were pre-equilibrated in 1X Kinetics Buffer (ForteBio) prior to beginning measurements. 5′-Biotinylated r(CUG)12 was folded by heating in 1X Kinetics Buffer at 60° C. for 5 min followed by slow cooling to room temperature on the bench top. Measurements were completed by incubating sensors sequentially in 200 μL of: 1X Kinetics Buffer, 540 nM 5′-biotinylated RNA, 1X Kinetics Buffer, compound of interest or MBNL1 (varying concentrations; seven 1:2 dilutions in 1X Kinetics Buffer), and finally 1X Kinetics Buffer. Data were fit using ForteBio's Data Analysis 7.0 software. MBNL1 and II (monomer) data were fit using a 1:1 model. This model fits one analyte in solution binding to one binding site on the surface. 2H-K4NMe and 2H-4 data were fit using a 2:1 heterogeneous ligand model. This model fits the binding of one analyte in solution to two different binding sites on the surface. Kinetic parameters are calculated for both interactions.

[5] = tested on: r(CAG)12; test: SPR binding kinetics to r(CAG)12
Procedure: as §1, §2

[6] = tested on: r(AU)12; test: SPR binding kinetics to r(AU)12
Procedure: as §1, §2

[7] = r(CUG)12, two component binding isotherm
[8] = r(CAG)12, two component binding isotherm
[9] = r(AU)12, two component binding isotherm

Pronase Degradation (pH 7.8) ([2]; pH 7.8, 37° C.): ++
Pronase Degradation (pH 9) ([2]; pH 9.0, 37° C.): ++
binding to r(CUG)12, fold more tightly than MBNL1 [4]: 5 fold
selectivity for r(CUG)12 over the other RNAs studied ([4]; over r(CAG)12, r(AU)12, r(GC)8): 30-100 fold
koff rate, fold slower than H ([4]; r(CUG)12): 10 fold
kon rate, fold faster than H ([4]; r(CUG)12): 10 fold
on rate, fold faster than MBNL1's ([4]; r(CUG)12): 79 fold
koff (1) ([4]; r(CUG)12, SD ≦±10%, two component fit for dimers, one component for H monomer and MBNL1): 0.00343 s⁻¹
Kd ([4]; r(CUG)12, read-out: Kobs (1)): 13.1 nM
koff (2) [4, 7]: 0.05 s⁻¹
kon (2) [4, 7]: 1870 M⁻¹ s⁻¹
kon (1) ([4]; r(CUG)12, two component fit for dimers, one component for H monomer and MBNL1): 261000 M⁻¹ s⁻¹
Selectivity for r(CUG)12 ([5]; over r(CAG)12): 63
kon (1) ([5]; r(CAG)12): 83800 M⁻¹ s⁻¹
kon (2) ([5]; r(CAG)12): 1630 M⁻¹ s⁻¹
Kd ([5]; r(CAG)12, read-out: Kobs (1)): 829 nM
koff (1) [5, 8]: 0.0695 s⁻¹
koff (2) [5, 8]: 0.0847 s⁻¹
Selectivity for r(CUG)12 ([6]; over r(AU)12): 30
kon (1) ([6]; r(AU)12): 41300 M⁻¹ s⁻¹
kon (2) ([6]; r(AU)12): 19800 M⁻¹ s⁻¹
Kd ([6]; r(AU)12, read-out: Kobs (1)): 400 nM
koff (1) [6, 9]: 0.0165 s⁻¹
koff (2) [6, 9]: 0.359 s⁻¹
Structure (SMILES): C[C@@H](C(=O)N(C)[C@@H](C)C(=O)N(C)[C@@H](C)C(=O)N(C)[C@@H](C)C(=O)N[C@@H](CCCCNC(=O)CCCOc1cccc(-c2nc3cc(-c4nc5cc(N6CCN(C)CC6)ccc5[nH]4)ccc3[nH]2)c1)C(N)=O)N(C)C(=O)CCCOc1cccc(-c2nc3ccc(-c4nc5cc(N6CCN(C)CC6)ccc5[nH]4)cc3[nH]2)c1 [Compound 2H-K4NMe]
in vitro potency rank in TR-FRET assay [1]: most potent
improvement of DM1 translational defect (luciferase activity), dose response [3]: Significant activity
